Data reported in PMC6456166, “Mitochondrial type II NADH dehydrogenase of Plasmodium falciparum (PfNDH2) is dispensable in the asexual blood stages” (PLoS ONE, 2019).

Molecular target: T1, cytochrome bc1 complex (cytochrome b, cyt b) (Plasmodium falciparum, UniProt Q02768)
T1 construct: gene MT-CYB; native bc1 complex in mitochondria-enriched preparations from D10 WT and ΔPfNDH2 parasites; with other subunits of the bc1 complex (Complex III)
T1 sequence (Q02768 1-376): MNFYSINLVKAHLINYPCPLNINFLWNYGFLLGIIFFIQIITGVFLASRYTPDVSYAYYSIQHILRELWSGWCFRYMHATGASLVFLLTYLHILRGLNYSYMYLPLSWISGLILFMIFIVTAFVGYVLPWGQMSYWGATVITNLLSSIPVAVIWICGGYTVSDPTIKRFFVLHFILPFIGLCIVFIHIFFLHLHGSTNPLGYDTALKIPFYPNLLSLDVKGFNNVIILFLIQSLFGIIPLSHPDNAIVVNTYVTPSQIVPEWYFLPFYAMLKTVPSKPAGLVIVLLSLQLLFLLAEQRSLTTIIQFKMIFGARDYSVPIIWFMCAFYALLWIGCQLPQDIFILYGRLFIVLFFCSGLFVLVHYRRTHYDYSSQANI
Assay: ubiquinol-cytochrome c reductase assay in isolated parasite mitochondria ([…] nm), dose-dependent inhibition in WT and ΔPfNDH2
Assay type: cell-based

SMILES: CCCCCCCCCCCCc1cc(=O)c2ccccc2n1O [HDQ, 1-hydroxy-2-dodecyl-4(1H) quinolone]
- ubiquinol-cytochrome c reductase assay in isolated parasite mitochondria (550 nm): HDQ and CK-2-68 inhibited the ubiquinol-cytochrome c reductase activity in the mitochondria of ΔPfNDH2 and WT
